{"source": "paper PMC6442678", "about": "(Journal of medicinal chemistry, 2018)", "origin": "cited, not measured here", "conditions": "mice, 24h after injection ref 52"}
{"substance": "Mn-EDTA-BTA", "values": [{"measurement": "injected Mn retained", "result": "> 50", "unit": "%"}]}
